For the first test, the target named is RIPK3 (Homo sapiens (Human), UniProt Q9Y572). Put plainly: RIPK3 HTRF Kinase Assay. Format: binding. Conditions: RIPK3 1 nM; HTRF probe 23 nM; 60 min at room temperature; read-out: IC50 for Inhibition of RIPK3.
Sequence of RIPK3 (Q9Y572 whole entry, species assumed): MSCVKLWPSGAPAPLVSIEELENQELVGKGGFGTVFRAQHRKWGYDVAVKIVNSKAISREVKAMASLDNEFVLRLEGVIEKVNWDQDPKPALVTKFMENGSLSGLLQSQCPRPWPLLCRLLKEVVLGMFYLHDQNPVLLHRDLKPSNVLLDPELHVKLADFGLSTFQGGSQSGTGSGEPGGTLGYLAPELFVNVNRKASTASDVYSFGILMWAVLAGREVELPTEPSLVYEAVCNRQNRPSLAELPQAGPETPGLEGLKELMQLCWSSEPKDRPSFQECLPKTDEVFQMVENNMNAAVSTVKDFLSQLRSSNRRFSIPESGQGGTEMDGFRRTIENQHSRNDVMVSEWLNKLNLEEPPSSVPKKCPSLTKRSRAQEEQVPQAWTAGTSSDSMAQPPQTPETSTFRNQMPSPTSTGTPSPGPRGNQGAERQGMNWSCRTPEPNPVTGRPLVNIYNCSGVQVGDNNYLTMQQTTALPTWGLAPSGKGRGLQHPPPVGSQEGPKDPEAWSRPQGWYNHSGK
Regarding `Cc1n[nH]cc1-c1c(-c2ccc(F)cc2)c2c(n1Cc1ccc(F)cc1C#N)CCNC2=O` [Example 1, 5-Fluoro-2-((3-(4-fluorophenyl)-2-(3-methyl-1H-pyrazol-4-yl)-4-oxo-4,5,6,7-tetrahydro-1H-pyrrolo[3,2-c]pyridin-1-yl)methyl)benzonitrile], the IC50 (commonly the concentration that inhibits the measured activity by half) fell in the range of 100 to 15000 nM.

With `N#Cc1cccc(Cn2c3c(c(-c4ccc(F)cc4)c2-c2ccncc2)C(=O)NCC3)c1` [Example 2, 3-((3-(4-Fluorophenyl)-4-oxo-2-(pyridin-4-yl)-4,5,6,7-tetrahydro-1H-pyrrolo[3,2-c]pyridin-1-yl)methyl)benzonitrile], the half-inhibitory concentration (IC50) was < 30 nM. The same measure, in the same setting: then `CC(=O)Nc1cc(-c2c(-c3ccc(F)cc3)c3c(n2CC2CCOCC2)CCNC3=O)ccn1` [Example 3, N-(4-(3-(4-Fluorophenyl)-4-oxo-1-((tetrahydro-2H-pyran-4-yl)methyl)-4,5,6,7-tetrahydro-1H-pyrrolo[3,2-c]pyridin-2-yl)pyridin-2-yl)acetamide], with 100 to 15000 nM.

Regarding `CC(=O)Nc1cc(-c2c(-c3ccc(F)cc3)c3c(n2Cc2ccc(C)cc2)CCNC3=O)ccn1` [Example 4, N-(4-(3-(4-Fluorophenyl)-1-(4-methylbenzyl)-4-oxo-4,5,6,7-tetrahydro-1H-pyrrolo[3,2-c]pyridin-2-yl)pyridin-2-yl)acetamide], the IC50 was < 30 nM.

For the molecule `O=C1NCCc2c1c(-c1cccc(-c3ccccc3)c1)c(-c1ccncc1)n2CC1CCOCC1` [Example 5, 3-([1,1′-Biphenyl]-3-yl)-2-(pyridin-4-yl)-1-((tetrahydro-2H-pyran-4-yl)methyl)-6,7-dihydro-1H-pyrrolo[3,2-c]pyridin-4(5H)-one], the IC50 was 100 to 15000 nM.

For the molecule `O=C1NCCc2c1c(-c1ccc(F)cc1)c(-c1ccnc(Cl)c1)n2Cc1ccc(C(F)(F)F)cc1F` [Example 6, 2-(2-Chloropyridin-4-yl)-1-(2-fluoro-4-(trifluoromethyl)benzyl)-3-(4-fluorophenyl)-6,7-dihydro-1H-pyrrolo[3,2-c]pyridin-4(5H)-one], the IC50 was 100 to 15000 nM. Consider `CC(C)C(=O)Nc1cc(-c2c(-c3ccc(F)cc3)c3c(n2Cc2ccc(C(F)(F)F)cc2F)CCNC3=O)ccn1` [Example 7, N-(4-(1-(2-Fluoro-4-(trifluoromethyl)benzyl)-3-(4-fluorophenyl)-4-oxo-4,5,6,7-tetrahydro-1H-pyrrolo[3,2-c]pyridin-2-yl)pyridin-2-yl)isobutyramide], for which the half-inhibitory concentration (IC50) lay in the range of 100 to 15000 nM.

On to `O=C1NCCc2c1c(-c1ccc(F)cc1)c(-c1ccnc(NC(=O)C3CC3)c1)n2Cc1ccc(C(F)(F)F)cc1F` [Example 8, N-(4-(1-(2-Fluoro-4-(trifluoromethyl)benzyl)-3-(4-fluorophenyl)-4-oxo-4,5,6,7-tetrahydro-1H-pyrrolo[3,2-c]pyridin-2-yl)pyridin-2-yl)cyclopropanecarboxamide], for which the IC50 was < 30 nM. Regarding `N#Cc1cc(F)ccc1Cn1c2c(c(-c3ccc(C(F)(F)F)cc3)c1-c1ccncc1)C(=O)NCC2` [Example 9, 5-Fluoro-2-((4-oxo-2-(pyridin-4-yl)-3-(4-(trifluoromethyl)phenyl)-4,5,6,7-tetrahydro-1H-pyrrolo[3,2-c]pyridin-1-yl)methyl)benzonitrile], the IC50 lay within 31 to 100 nM. On to `CNc1cc(-c2c(-c3ccc(F)cc3)c3c(n2Cc2ccc(C(F)(F)F)cc2F)CCNC3=O)ccn1` [Example 10], for which the half-maximal inhibitory concentration (IC50) lay within 100 to 15000 nM.

With `N#Cc1cc(F)ccc1Cn1c2c(c(-c3cccnc3)c1-c1ccnc(Cl)c1)C(=O)NCC2` [Example 11, 2-((2-(2-Chloropyridin-4-yl)-4-oxo-3-(pyridin-3-yl)-4,5,6,7-tetrahydro-1H-pyrrolo[3,2-c]pyridin-1-yl)methyl)-5-fluorobenzonitrile], the IC50 was in the range of 100 to 15000 nM.

Turning to `Nc1cc(-c2c(-c3ccc(F)cc3)c3c(n2Cc2ccc(C(F)(F)F)cc2F)CCNC3=O)ccn1` [Example 12, 2-(2-Aminopyridin-4-yl)-1-(2-fluoro-4-(trifluoromethyl)benzyl)-3-(4-fluorophenyl)-6,7-dihydro-1H-pyrrolo[3,2-c]pyridin-4(5H)-one], the IC50 lay within 100 to 15000 nM. Consider `Cc1noc(-c2ccc(Cn3c4c(c(-c5ccc(F)cc5)c3-c3ccncc3)C(=O)NCC4)cc2)n1` [Example 13, 3-(4-Fluorophenyl)-1-(4-(3-methyl-1,2,4-oxadiazol-5-yl)benzyl)-2-(pyridin-4-yl)-6,7-dihydro-1H-pyrrolo[3,2-c]pyridin-4(5H)-one], for which the IC50 was < 30 nM. As for `N#Cc1cc(F)ccc1Cn1c2c(c(-c3cccs3)c1-c1ccncc1)C(=O)NCC2` [Example 14, 5-Fluoro-2-((4-oxo-2-(pyridin-4-yl)-3-(thiophen-2-yl)-4,5,6,7-tetrahydro-1H-pyrrolo[3,2-c]pyridin-1-yl)methyl)benzonitrile], the concentration for half-maximal inhibition (IC50) was < 30 nM. Still for that read-out and setting: next, `COc1cnccc1-c1c(-c2ccc(F)cc2)c2c(n1Cc1ccc(F)cc1C#N)CCNC2=O` [Example 15]: 31 to 100 nM; `N#Cc1cc(F)ccc1Cn1c2c(c(-c3ccc(F)cc3)c1-c1ccnc(C(F)(F)F)c1)C(=O)NCC2` [Example 16]: 100 to 15000 nM. As for `N#Cc1cc(F)ccc1Cn1c2c(c(-c3ccc(F)cc3)c1-c1cncnc1)C(=O)NCC2` [Example 17], the 50% inhibitory concentration (IC50) lay within 100 to 15000 nM. On the same count and under the same terms, then `N#Cc1cc(F)ccc1Cn1c2c(c(-c3ccc(F)cc3)c1-c1ccc3[nH]ccc3c1)C(=O)NCC2` [Example 19], with 100 to 15000 nM; and `Cc1cc(-c2c(-c3ccc(F)cc3)c3c(n2Cc2ccc(F)cc2C#N)CCNC3=O)ccn1` [Example 20], with 31 to 100 nM.

With `CC(=O)Nc1cccc(-c2c(-c3ccc(F)cc3)c3c(n2Cc2ccc(F)cc2C#N)CCNC3=O)c1` [Example 21], the IC50 lay within 100 to 15000 nM. Still for that read-out and setting: then `N#Cc1cc(F)ccc1Cn1c2c(c(-c3ccc(F)cc3)c1-c1ccnc(Cl)c1)C(=O)NCC2` [Example 22], with 100 to 15000 nM. On the same count and under the same terms, next, `N#Cc1cc(F)ccc1Cn1c2c(c(-c3ccc(F)cc3)c1-c1ccoc1)C(=O)NCC2` [Example 23]: 100 to 15000 nM. The same measure, in the same setting: then `Cn1cc(-c2c(-c3ccc(F)cc3)c3c(n2Cc2ccc(F)cc2C#N)CCNC3=O)cn1` [Example 24], with 100 to 15000 nM; and `N#Cc1cc(F)ccc1Cn1c2c(c(-c3ccc(F)cc3)c1-c1ccsc1)C(=O)NCC2` [Example 25], with 100 to 15000 nM; and `COc1ncc(-c2c(-c3ccc(F)cc3)c3c(n2Cc2ccc(F)cc2C#N)CCNC3=O)cn1` [Example 26], with 100 to 15000 nM. Regarding `N#Cc1cc(F)ccc1Cn1c2c(c(-c3ccc(F)cc3)c1-c1ccncc1F)C(=O)NCC2` [Example 27], the half-inhibitory concentration (IC50) was < 30 nM. The same measure, in the same setting: then `N#Cc1ccc(Cn2c3c(c(-c4ccc(F)cc4)c2-c2ccncc2)C(=O)NCC3)cc1` [Example 28], with 31 to 100 nM; and `O=C1NCCc2c1c(-c1ccc(F)cc1)c(-c1ccncc1)n2CC1CCNCC1` [Example 30], with 100 to 15000 nM; and `O=C1NCCc2c1c(-c1ccc(F)cc1)c(-c1ccncc1)n2CC1CCOCC1` [Example 31], with 100 to 15000 nM. Same read-out and setting: then `O=C1NCCc2c1c(-c1ccc(F)cc1)c(-c1ccncc1)n2Cc1ccc(C(F)(F)F)cc1` [Example 33], with 31 to 100 nM; and `N#Cc1cc(F)ccc1Cn1c2c(c(-c3ccc(F)cc3)c1-c1ccncc1)C(=O)NCC2` [Example 34], with < 30 nM; and `N#Cc1ccc(Cn2c3c(c(-c4ccc(F)cc4)c2-c2ccncc2)C(=O)NCC3)cc1F` [Example 35], with 31 to 100 nM. Still for that read-out and setting: then `CC(c1ccccc1)n1c2c(c(-c3ccc(F)cc3)c1-c1ccncc1)C(=O)NCC2` (stereo not shown) [Example 36], with 100 to 15000 nM; and `COc1ccc(CCn2c3c(c(-c4ccc(F)cc4)c2-c2ccncc2)C(=O)NCC3)cc1` [Example 37], with 100 to 15000 nM; and `COc1ccc(Cn2c3c(c(-c4ccc(F)cc4)c2-c2ccncc2)C(=O)NCC3)cc1` [Example 38], with < 30 nM. `O=C1NCCc2c1c(-c1ccc(F)cc1)c(-c1ccncc1)n2Cc1ccc(OC(F)(F)F)c(Cl)c1` [Example 40]: the IC50 was 100 to 15000 nM.

As for `O=C1NCCc2c1c(-c1ccc(F)cc1)c(-c1ccncc1)n2Cc1cc(F)cc(C(F)(F)F)c1` [Example 41], the IC50 was < 30 nM. Still for that read-out and setting: then `CS(=O)(=O)c1ccc(Cn2c3c(c(-c4ccc(F)cc4)c2-c2ccncc2)C(=O)NCC3)cc1` [Example 42], with 100 to 15000 nM; and `O=C1NCCc2c1c(-c1ccc(F)cc1)c(-c1ccncc1)n2Cc1ccc(C(F)(F)F)cc1F` [Example 43], with < 30 nM; and `O=C1NCCc2c1c(-c1ccc(F)cc1)c(-c1ccncc1)n2Cc1ccc(F)cc1` [Example 44], with < 30 nM. The same measure, in the same setting: then `Cc1cc(Cn2c3c(c(-c4ccc(F)cc4)c2-c2ccncc2)C(=O)NCC3)ccc1F` [Example 46], with < 30 nM; and `O=C1NCCc2c1c(-c1ccc(F)cc1)c(-c1ccncc1)n2Cc1nnc(C2CC2)s1` [Example 47], with 100 to 15000 nM. Same read-out and setting: next, `Cc1nc(-c2ccc(Cn3c4c(c(-c5ccc(F)cc5)c3-c3ccncc3)C(=O)NCC4)c(F)c2)no1` [Example 48]: < 30 nM; `N#CCn1c2c(c(-c3ccc(F)cc3)c1-c1ccncc1)C(=O)NCC2` [Example 49]: 100 to 15000 nM. Turning to `Cc1noc(C)c1Cn1c2c(c(-c3ccc(F)cc3)c1-c1ccncc1)C(=O)NCC2` [Example 50], the half-inhibitory concentration (IC50) is 100 to 15000 nM. Still for that read-out and setting: then `N#Cc1ccc(Cn2c3c(c(-c4ccc(F)cc4)c2-c2ccncc2)C(=O)NCC3)c(F)c1` [Example 51], with < 30 nM; and `O=C1NCCc2c1c(-c1ccc(F)cc1)c(-c1ccncc1)n2Cc1ccc(C2CC2)cc1` [Example 52], with 31 to 100 nM; and `O=C1NCCc2c1c(-c1ccc(F)cc1)c(-c1ccncc1)n2Cc1ccc(C(F)(F)F)cc1C(F)(F)F` [Example 53], with < 30 nM.

As for `N#Cc1ccc(Cn2c3c(c(-c4ccc(F)cc4)c2-c2ccncc2)C(=O)NCC3)nc1` [Example 54], the IC50 lay in the range of 31 to 100 nM.

Staying with this test, now noted: read-out: IC50 for Inhibition of RIPK3.
`N#Cc1cc(F)ccc1Cn1c2c(c(-c3ccc(F)cc3)c1-c1ccnc(F)c1)C(=O)NCC2` [Example 18]: the IC50 was in the range of 100 to 15000 nM. As to `O=C1NCCc2c1c(-c1ccc(F)cc1)c(-c1ccncc1)n2CC1CCCNC1` (stereo not shown) [Example 32], the IC50 was in the range of 100 to 15000 nM. For the molecule `Cc1ccc(Cn2c3c(c(-c4ccc(F)cc4)c2-c2ccncc2)C(=O)NCC3)cc1` [Example 45], the IC50 was 31 to 100 nM.

These data come from US10301306B2, “Substituted dihydro-1H-pyrrolo[3,2-c]pyridin-4(5H)-ones as RIPK3 inhibitors” (BRISTOL-MYERS SQUIBB COMPANY, priority 2014, dated 2019).
